Values of other authors in US20260124184A1, “ONCE DAILY ALDOSTERONE SYNTHASE INHIBITOR (R)-(+)-5-(P-CYANOPHENYL)-5,6,7,8-TETRAHYDROIMIDAZO[L,5-A]PYRIDINE” (priority 2022, published 2026).

Target: aldosterone synthase (Homo sapiens, UniProt P19099)
Conditions: ee of (R) form ≥99%; per WO 2018/078049; cited from earlier work

Sequence of aldosterone synthase (P19099 25-503, species assumed): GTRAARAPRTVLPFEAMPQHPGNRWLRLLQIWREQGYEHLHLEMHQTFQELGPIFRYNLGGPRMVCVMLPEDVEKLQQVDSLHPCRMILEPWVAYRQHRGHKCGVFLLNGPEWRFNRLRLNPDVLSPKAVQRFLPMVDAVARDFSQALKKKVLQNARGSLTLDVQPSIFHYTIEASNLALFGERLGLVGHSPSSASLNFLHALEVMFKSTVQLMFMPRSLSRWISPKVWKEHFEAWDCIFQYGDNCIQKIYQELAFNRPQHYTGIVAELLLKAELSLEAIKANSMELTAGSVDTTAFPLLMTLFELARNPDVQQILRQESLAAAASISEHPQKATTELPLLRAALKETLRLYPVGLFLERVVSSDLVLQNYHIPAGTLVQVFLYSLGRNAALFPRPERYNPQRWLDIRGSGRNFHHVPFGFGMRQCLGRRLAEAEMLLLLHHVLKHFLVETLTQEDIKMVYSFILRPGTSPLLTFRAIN

N#Cc1ccc([C@H]2CCCc3cncn32)cc1 [(R)-(+)-5-(p-cyanophenyl)-5,6,7,8-tetrahydroimidazo[1,5-a]pyridine]
aldosterone synthase inhibition, potency: low nanomolar
aldosterone synthase inhibition, selectivity: selective
